Test results: patent publication US20120265121A1, “PHTHALOCYANINE-BASED ANTIFUNGAL AGENTS” (CASE WESTERN RESERVE UNIVERSITY, priority 2011, published 2012)

What was measured:
[1] = type: in vitro ADME, human
From the text: Because drug penetration into and through the nail plate is always a challenge in the treatment of onychomycosis, the nail absorption of topically applied Pc 4 was also investigated. […] Considering that these samples were healthy nails, it appears that diseased/dystrophic nails whose barrier functions have been compromised may even have better Pc 4 absorption. Nonetheless, in the clinical protocol, the inventors specified that Pc 4 will be applied not only on the nail plate but also on the exposed subungual tissue and periungual area.

[2] = system: C. albicans (strain SC-5134); experiment: FITC-labeled Annexin V staining of protoplasts (phosphatidylserine externalization); type: cell-based, Candida albicans; settings: 1.0 μM Pc 4-PDT, 2.0 J/cm^2, within 4 to 5 hours of PDT
Procedure: Cells were then incubated for 4 hr before staining with FITC-labeled Annexin V. FIG. 4(a) provides confocal images of FITC-labeling of cells that had been treated with H2O2 or Pc 4-PDT. Scale bar, 20 μm. FIG. 4(b) provides a bar graph showing the results. For each experiment over 50-100 protoplasts cells were counted per sample. […] Cells were counted by eye using a Zeiss AxiovertTM S100 inverted epifluorescence microscope. Values represent the mean±S.E. from at least three independent experiments. […] Apoptosis Analyses: (A) FITC-labeled Annexin V staining-To assess the externalization of phosphatidylserine, protoplasts of C. albicans were stained with FITC-labeled Annexin V using the Annexin V-FLUOS staining kit (Roche, Germany) with minor modifications. Madeo et al., J Cell Biol 139:729-734 (1997); Park et al., Biochem Biophys Res Commun 394:170-172 (2010). Briefly, control and treated cells were washed three times with 1× PBS before incubating at 37° C. for 30 min in a protoplasting solution (50 mM KH2PO4, 5 mM EDTA and 50 mM DTT). Then cells were digested at 37° C. for 45 min in an enzyme solution (50 mM K2HPO4, 40 mM 2-mercaptoethanol, 3 μg/mL Chitinase, 1.8 μg/mL […], 0.15 mg/mL Zymolyase and 2.4 M sorbitol). 1× PBS was added to each sample and incubated for 30 min at room temperature in all experiments. Protoplasts were then incubated with 100 μL of Annexin V-FLUOS labeling solution for 15 min at 25° C. FITC-labeled Annexin V fluorescence was detected by both widefield (Leica DMI6000B microscope; Leica Microsystems, Inc., Bannockburn, Ill., USA) and confocal fluorescence microscopy.

For CN(C)CCC[Si](C)(C)O[Si]1(O)n2c3c4ccccc4c2N=C2N=C(N=c4c5ccccc5c(n41)=NC1=NC(=N3)c3ccccc31)c1ccccc12 (centres unmarked) [Pc 4, HOSiPcOSi(CH3)2(CH2)3N(CH3)2], the “Pc 4 fluorescence within the nail plate” value [1] was “significant amount of Pc 4 fluorescence can be detected within the nail plate” and the “Annexin V positive cells” value [2] was 20%.
